Patent US11390604B2 (Hoffmann-La Roche Inc., priority 2019, dated 2022)
Counter-ions that a name gives are not always drawn.

These molecules were tested on Acinetobacter baumannii ATCC 17961 (assay: Antimicrobial susceptibility testing: 90% growth inhibitory concentration (IC90) determination). Conditions: ATCC17961, Acinetobacter baumannii ATCC 17961, Iso-Sensitest broth, read-out: ATCC 17961 IC90.
Type: cell-based
Summary of the method: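 Broth microdilution in Iso-Sensitest medium, twofold series (e.g. 50 to 0.097 μM final), ~5×10^5 CFU/ml inoculum, 35±2 °C. OD600 read every 20 min over 16 h. IC90 derived from growth inhibition during logarithmic phase.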

SMILES | IC90 [nM]
C#CCn1cc(-c2cnc(C(=O)Nc3ccc(C(=O)N4CCN(C(=O)NC5CNC5)CC4)c(Cl)c3)n2C)c(C(F)(F)F)n1 [Example 51, N-(Azetidin-3-yl)-4-(2-chloro-4-(1-methyl-5-(1-(prop-2-yn-1-yl)-3-(trifluoromethyl)-1H-pyrazol-4-yl)-1H-imidazole-2-carboxamido)benzoyl)piperazine-1-carboxamide Hydrochloride] | 122
C#CCn1cc(-c2cnc(C(=O)Nc3ccc(C(=O)NC4C5CN(C(=O)C6CCNCC6)CC54)c(Cl)c3)n2C)c(C(F)(F)F)n1 (stereo not drawn) [Example 245, N-(3-chloro-4-((3-(piperidine-4-carbonyl)-3-azabicyclo[3.1.0]hexan-6-yl)carbamoyl)phenyl)-1-methyl-5-(1-(prop-2-yn-1-yl)-3-(trifluoromethyl)-1H-pyrazol-4-yl)-1H-imidazole-2-carboxamide formate] | 288
CCc1cc(NC(=O)c2ncc(-c3cn(CC(F)F)nc3C(F)(F)F)n2C)ccc1C(=O)N1CCN(C(=O)NCC2(O)CNC2)CC1 [Example 157, 4-[4-[[5-[1-(2,2-difluoroethyl)-3-(trifluoromethyl)pyrazol-4-yl]-1-methylimidazole-2-carbonyl]amino]-2-ethylbenzoyl]-N-[(3-hydroxyazetidin-3-yl)methyl]piperazine-1-carboxamide;formic acid] | 1000
Cn1c(-c2cn([C@@H]3CC3(F)F)nc2C(F)(F)F)cnc1C(=O)Nc1ccc(C(=O)N[C@H]2[C@@H]3CN(C(=O)N[C@@H]4CNC[C@H]4O)C[C@@H]32)c(Cl)c1 [Example 181, (1S,5R)-6-[[2-chloro-4-[[5-[1-[(1R)-2,2-difluorocyclopropyl]-3-(trifluoromethyl)pyrazol-4-yl]-1-methyl-imidazole-2-carbonyl]amino]benzoyl]amino]-N-[(3R,4R)-4-hydroxypyrrolidin-3-yl]-3-azabicyclo[3.1.0]hexane-3-carboxamide; Hydrochloride] | 64
C#CCn1cc(-c2cnc(C(=O)Nc3ccc(C(=O)NC)c(Cl)c3)n2C)c(C(F)(F)F)n1 [Example 43, N-(3-chloro-4-(methylcarbamoyl)phenyl)-1-methyl-5-(1-(prop-2-yn-1-yl)-3-(trifluoromethyl)-1H-pyrazol-4-yl)-1H-imidazole-2-carboxamide] | 478
Cn1c(-c2cn(C3CC3(F)F)nc2C(F)(F)F)cnc1C(=O)Nc1ccc(C(=O)N2C[C@H]3CN(C(=O)N[C@H]4CNC[C@@H]4O)C[C@H]3C2)c(Cl)c1 (mixture of isomers) [Example 288, rac-(3aR,6aS)-5-(2-chloro-4-(5-(1-(2,2-difluorocyclopropyl)-3-(trifluoromethyl)-1H-pyrazol-4-yl)-1-methyl-1H-imidazole-2-carboxamido)benzoyl)-N-((3R,4R)-4-hydroxypyrrolidin-3-yl)hexahydropyrrolo[3,4-c]pyrrole-2(1H)-carboxamide formate] | 354
Cn1c(-c2cn(CC#N)nc2C(F)(F)F)cnc1C(=O)Nc1ccc(C(=O)N2CCNCC2)c(Cl)c1 [Example 69, N-[3-chloro-4-(piperazine-1-carbonyl)phenyl]-5-[1-(cyanomethyl)-3-(trifluoromethyl)pyrazol-4-yl]-1-methylimidazole-2-carboxamide;2,2,2-trifluoroacetic acid] | 309
CN(CCCCNC(=O)c1ccc(NC(=O)c2ncc(-c3cn(C4CC4(F)F)nc3C(F)(F)F)n2C)cc1Cl)C(=O)N[C@H]1CNC[C@@H]1O (mixture of isomers) [Example 331, rac-N-(3-chloro-4-((4-(3-((3S,4S)-4-hydroxypyrrolidin-3-yl)-1-methylureido)butyl)carbamoyl)phenyl)-5-(1-(2,2-difluorocyclopropyl)-3-(trifluoromethyl)-1H-pyrazol-4-yl)-1-methyl-1H-imidazole-2-carboxamide formate] | 422
Cn1c(-c2cn(CCC(N)=O)nc2C(F)(F)F)cnc1C(=O)Nc1ccc(C(=O)N2CCN(C(=O)C3CCNCC3)CC2)c(Cl)c1 [Example 4, 5-(1-(3-amino-3-oxopropyl)-3-(trifluoromethyl)-1H-pyrazol-4-yl)-N-(3-chloro-4-(4-(piperidine-4-carbonyl)piperazine-1-carbonyl)phenyl)-1-methyl-1H-imidazole-2-carboxamide] | 4060
Cn1c(-c2cn(CC3(C)CSC3)nc2C(F)(F)F)cnc1C(=O)Nc1ccc(C(=O)N2CCN(C(=O)C3CCNCC3)CC2)c(Cl)c1 [Example 107, N-[3-chloro-4-[4-(piperidine-4-carbonyl)piperazine-1-carbonyl]phenyl]-1-methyl-5-[1-[(3-methylthietan-3-yl)methyl]-3-(trifluoromethyl)pyrazol-4-yl]imidazole-2-carboxamide;hydrochloride] | 444
Cn1c(-c2cn(C3CC3(F)F)nc2C(F)(F)F)cnc1C(=O)Nc1ccc(C(=O)N2CC3C(C2)C3NC(=O)N[C@H]2CNC[C@@H]2O)c(Cl)c1 (mixture of isomers) [Example 300, rac-N-(3-chloro-4-(6-(3-((3R,4R)-4-hydroxypyrrolidin-3-yl)ureido)-3-azabicyclo[3.1.0]hexane-3-carbonyl)phenyl)-5-(1-(2,2-difluorocyclopropyl)-3-(trifluoromethyl)-1H-pyrazol-4-yl)-1-methyl-1H-imidazole-2-carboxamide formate] | 367
C#CCn1cc(-c2cnc(C(=O)Nc3ccc(C(=O)N4CCN(C(=O)NCCNC)CC4)c(Cl)c3)n2C)c(C(F)(F)F)n1 [Example 76, 4-[2-chloro-4-[[1-methyl-5-[1-prop-2-ynyl-3-(trifluoromethyl)pyrazol-4-yl]imidazole-2-carbonyl]amino]benzoyl]-N-[2-(methylamino)ethyl]piperazine-1-carboxamide] | 247
CCc1cc(NC(=O)c2ncc(-c3cn(C)nc3C(F)(F)F)n2C)ccc1C(=O)NCCOCCN [Example 57, N-(4-((2-(2-aminoethoxy)ethyl)carbamoyl)-3-ethylphenyl)-1-methyl-5-(1-methyl-3-(trifluoromethyl)-1H-pyrazol-4-yl)-1H-imidazole-2-carboxamide hydrochloride] | 4150
C#CCn1cc(-c2cnc(C(=O)Nc3ccc(C(=O)N4CCN(C(=O)N5CCC[C@H](N)C5)CC4)c(Cl)c3)n2C)c(C(F)(F)F)n1 [Example 85, N-[4-[4-[(3S)-3-aminopiperidine-1-carbonyl]piperazine-1-carbonyl]-3-chlorophenyl]-1-methyl-5-[1-prop-2-ynyl-3-(trifluoromethyl)pyrazol-4-yl]imidazole-2-carboxamide] | 170
Cn1c(-c2cn(CC#N)nc2C(F)(F)F)cnc1C(=O)Nc1ccc(C(=O)N[C@H]2C[C@@H](NC(=O)[C@@H]3CCNC3)C2)c(Cl)c1 [Example 253, N-[3-chloro-4-[[3-[[(3R)-pyrrolidine-3-carbonyl]amino]cyclobutyl]car-bamoyl]phenyl]-5-[1-(cyanomethyl)-3-(trifluoromethyl)pyrazol-4-yl]-1-methyl-imidazole-2-carboxamide; formic acid] | 309
Cn1c(-c2cn(Cc3cccnc3)nc2C(F)(F)F)cnc1C(=O)Nc1ccc(C(=O)N2CCN(C(=O)[C@H]3C[C@H](N)C3)CC2)c(Cl)c1 [Example 63, rac-N-(4-(4-((1r,3r)-3-aminocyclobutane-1-carbonyl)piperazine-1-carbonyl)-3-chlorophenyl)-1-methyl-5-(1-(pyridin-3-ylmethyl)-3-(trifluoromethyl)-1H-pyrazol-4-yl)-1H-imidazole-2-carboxamide trihydrochloride] | 517
Cn1c(-c2cn(CC(F)F)nc2C(F)(F)F)cnc1C(=O)Nc1ccc(C(=O)N2CCN(C(=O)[C@H]3[C@@H]4CNC[C@@H]43)CC2)c(F)c1 [Example 213, rac-N-(4-(4-((1R,5S,6r)-3-azabicyclo[3.1.0]hexane-6-carbonyl)piperazine-1-carbonyl)-3-fluorophenyl)-5-(1-(2,2-difluoroethyl)-3-(trifluoromethyl)-1H-pyrazol-4-yl)-1-methyl-1H-imidazole-2-carboxamide] | 240
C=C(C)Cn1cc(-c2cnc(C(=O)Nc3ccc(C(=O)N4CCN(C(=O)[C@H]5[C@@H]6CNC[C@@H]65)CC4)c(Cl)c3)n2C)c(C(F)(F)F)n1 [Example 257, rac-N-(4-(4-((1R,5S,6r)-3-azabicyclo[3.1.0]hexane-6-carbonyl)piperazine-1-carbonyl)-3-chlorophenyl)-1-methyl-5-(1-(2-methylallyl)-3-(trifluoromethyl)-1H-pyrazol-4-yl)-1H-imidazole-2-carboxamide hydrochloride] | 313
Cc1cc(NC(=O)c2ncc(-c3cn(CC#N)nc3C(F)(F)F)n2C)ccc1S(C)(=O)=NCCCN (stereo not drawn) [Example 291, N-[4-[N-(3-aminopropyl)-S-methyl-sulfonimidoyl]-3-methyl-phenyl]-5-[1-(cyanomethyl)-3-(trifluoromethyl)pyrazol-4-yl]-1-methyl-imidazole-2-carboxamide; formic acid] | 359
Cn1c(-c2cn(Cc3cccnc3)nc2C(F)(F)F)cnc1C(=O)Nc1ccc(C(=O)N2CCN(C(=O)[C@H]3CC[C@@H](N)C3)CC2)c(Cl)c1 [Example 64, N-(4-(4-((1S,3R)-3-aminocyclopentane-1-carbonyl)piperazine-1-carbonyl)-3-chlorophenyl)-1-methyl-5-(1-(pyridin-3-ylmethyl)-3-(trifluoromethyl)-1H-pyrazol-4-yl)-1H-imidazole-2-carboxamide trihydrochloride] | 4660
Cn1c(-c2cn(C3CC3)nc2C(F)(F)F)cnc1C(=O)Nc1ccc(C(=O)NCCCCCCNC(=O)N[C@H]2C[C@@H](N)C2)c(Cl)c1 [Example 262, N-[4-[6-[(3-aminocyclobutyl)carbamoyl-amino]hexylcarbamoyl]-3-chlorophenyl]-5-[1-cyclopropyl-3-(trifluoromethyl)pyrazol-4-yl]-1-methylimidazole-2-carboxamide;formic acid] | 323
